What all share (test): biochemical
What all share (design): DiscoverX KinomeScan competition binding assay across human kinases; per cent of control at 10 and 100 uM

In one assay the target is PLK2 (Homo sapiens, UniProt Q9NYY3). The conditions noted are these: competition binding, % of control; read-out: Percent Control (100 uM Levosimendan). The gist of the method: (§1)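 KinomeScan competition binding was run across a human kinase panel at 10 μM and 100 μM levosimendan. Results are %control = (test − positive control)/(negative control − positive control) × 100.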

In a further assay the target is TSSK3 (Homo sapiens, UniProt Q96PN8). The conditions noted are these: competition binding, % of control; read-out: Percent Control (100 uM Levosimendan). The gist of the method:
as §1

The next assay deals with TXK (Homo sapiens, UniProt P42681). The conditions noted are these: competition binding, % of control; read-out: Percent Control (100 uM Levosimendan). The gist of the method: as §1
A further assay concerns the target T1, S6K1 (Homo sapiens, UniProt P23443).
T1 construct: gene RPS6KB1
The conditions noted are these: competition binding, % of control. The gist of the method: as §1

For a further assay, the target named is CLK4 (Homo sapiens, UniProt Q9HAZ1). As to conditions: competition binding, % of control; read-out: Percent Control (100 uM Levosimendan). The gist of the method: as §1
The target in a further assay is CDKL3 (Homo sapiens, UniProt Q8IVW4). As to conditions: competition binding, % of control; read-out: Percent Control (100 uM Levosimendan). The procedure, abridged:
as §1

The target in a further assay is T2, DCAMKL1 (Homo sapiens, UniProt O15075).
T2 construct: gene DCLK1
As to conditions: competition binding, % of control; read-out: Percent Control (100 uM Levosimendan). The procedure, abridged:
as §1

The target in a further assay is GRK1 (Homo sapiens, UniProt Q15835). The conditions noted are these: competition binding, % of control; read-out: Percent Control (100 uM Levosimendan). The gist of the method:
as §1

Another assay deals with IGF1R (Homo sapiens, UniProt P08069). The conditions noted are these: competition binding, % of control; read-out: Percent Control (100 uM Levosimendan). The gist of the method:
as §1

The next assay has as its target MAP4K2 (Homo sapiens, UniProt Q12851). The conditions noted are these: competition binding, % of control; read-out: Percent Control (100 uM Levosimendan). The gist of the method: as §1
The next assay addresses T3, MLK2 (Homo sapiens, UniProt Q02779).
T3 construct: gene MAP3K10
The conditions noted are these: competition binding, % of control; read-out: Percent Control (100 uM Levosimendan). The procedure, abridged:
as §1

For a further assay, the target named is T4, MST1 (Homo sapiens, UniProt Q13043).
T4 construct: gene STK4
As to conditions: competition binding, % of control; read-out: Percent Control (100 uM Levosimendan). The gist of the method:
as §1

The target in the next assay is TGFBR2 (Homo sapiens, UniProt P37173). As to conditions: competition binding, % of control; read-out: Percent Control (100 uM Levosimendan). The procedure, abridged:
as §1

In the next assay the target is T5, p38-alpha (Homo sapiens, UniProt Q16539).
T5 construct: gene MAPK14
The conditions noted are these: competition binding, % of control; read-out: Percent Control (100 uM Levosimendan). The procedure, abridged: as §1

Another assay deals with T6, ADCK4 (Homo sapiens, UniProt Q96D53).
T6 construct: gene COQ8B
As to conditions: competition binding, % of control; read-out: Percent Control (100 uM Levosimendan). The procedure, abridged:
as §1

The target of another assay is PIK3CA(E545K) (Homo sapiens, UniProt P42336, E545K). As to conditions: competition binding, % of control; read-out: Percent Control (100 uM Levosimendan). The gist of the method:
as §1

For a further assay, the target named is LTK (Homo sapiens, UniProt P29376). The conditions noted are these: competition binding, % of control; read-out: Percent Control (100 uM Levosimendan). The procedure, abridged: as §1
The next assay addresses PIK3CA(C420R) (Homo sapiens, UniProt P42336, C420R). As to conditions: competition binding, % of control; read-out: Percent Control (100 uM Levosimendan). The procedure, abridged:
as §1

The target of a further assay is CDKL5 (Homo sapiens, UniProt O76039). As to conditions: competition binding, % of control; read-out: Percent Control (100 uM Levosimendan). The procedure, abridged:
as §1

Experimental findings from paper PMC6576746, “Rational discovery of dual-indication multi-target PDE/Kinase inhibitor for precision anti-cancer therapy using structural systems pharmacology” (PLoS Computational Biology, 2019) are described below.

T1 sequence (P23443 whole entry): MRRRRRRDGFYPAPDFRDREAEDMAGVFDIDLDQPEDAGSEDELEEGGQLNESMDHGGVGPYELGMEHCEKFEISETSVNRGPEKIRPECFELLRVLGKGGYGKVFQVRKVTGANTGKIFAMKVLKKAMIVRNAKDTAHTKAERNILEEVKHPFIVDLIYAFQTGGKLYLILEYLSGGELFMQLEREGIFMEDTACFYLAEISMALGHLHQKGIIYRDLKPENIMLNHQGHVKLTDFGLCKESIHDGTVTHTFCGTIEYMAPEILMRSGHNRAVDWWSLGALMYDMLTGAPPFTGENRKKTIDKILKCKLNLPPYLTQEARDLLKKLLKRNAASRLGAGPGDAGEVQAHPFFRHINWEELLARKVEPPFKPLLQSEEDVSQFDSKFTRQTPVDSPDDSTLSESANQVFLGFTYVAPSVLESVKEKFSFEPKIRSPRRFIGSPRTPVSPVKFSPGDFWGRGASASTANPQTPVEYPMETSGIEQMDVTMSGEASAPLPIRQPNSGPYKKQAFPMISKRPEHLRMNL
CDKL5, sequence (O76039 whole entry): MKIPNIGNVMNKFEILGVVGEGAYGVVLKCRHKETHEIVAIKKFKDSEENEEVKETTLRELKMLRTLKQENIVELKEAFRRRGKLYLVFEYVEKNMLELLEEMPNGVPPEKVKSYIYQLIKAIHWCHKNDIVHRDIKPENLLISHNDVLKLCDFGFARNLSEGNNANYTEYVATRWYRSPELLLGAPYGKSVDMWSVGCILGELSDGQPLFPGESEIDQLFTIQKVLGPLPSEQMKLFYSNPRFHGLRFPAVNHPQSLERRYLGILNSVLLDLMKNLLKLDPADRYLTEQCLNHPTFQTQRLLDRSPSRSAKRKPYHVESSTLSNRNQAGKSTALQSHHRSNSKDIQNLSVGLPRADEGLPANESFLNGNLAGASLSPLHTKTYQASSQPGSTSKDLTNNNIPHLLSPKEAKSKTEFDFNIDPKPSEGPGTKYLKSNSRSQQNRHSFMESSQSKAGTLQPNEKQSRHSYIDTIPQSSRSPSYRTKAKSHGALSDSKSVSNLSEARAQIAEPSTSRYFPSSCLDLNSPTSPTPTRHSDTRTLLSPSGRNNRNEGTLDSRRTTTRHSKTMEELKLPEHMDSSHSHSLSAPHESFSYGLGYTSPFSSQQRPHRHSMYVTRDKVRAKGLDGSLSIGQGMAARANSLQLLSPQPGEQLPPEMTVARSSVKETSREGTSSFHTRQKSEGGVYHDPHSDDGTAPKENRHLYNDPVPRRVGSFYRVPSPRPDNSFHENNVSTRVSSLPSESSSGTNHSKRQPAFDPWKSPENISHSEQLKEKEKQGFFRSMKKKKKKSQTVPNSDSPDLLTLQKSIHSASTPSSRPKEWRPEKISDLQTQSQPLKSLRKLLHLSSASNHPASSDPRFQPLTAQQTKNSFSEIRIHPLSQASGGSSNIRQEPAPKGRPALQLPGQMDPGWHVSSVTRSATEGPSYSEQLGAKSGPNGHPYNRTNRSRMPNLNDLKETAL
CLK4, sequence (Q9HAZ1 whole entry): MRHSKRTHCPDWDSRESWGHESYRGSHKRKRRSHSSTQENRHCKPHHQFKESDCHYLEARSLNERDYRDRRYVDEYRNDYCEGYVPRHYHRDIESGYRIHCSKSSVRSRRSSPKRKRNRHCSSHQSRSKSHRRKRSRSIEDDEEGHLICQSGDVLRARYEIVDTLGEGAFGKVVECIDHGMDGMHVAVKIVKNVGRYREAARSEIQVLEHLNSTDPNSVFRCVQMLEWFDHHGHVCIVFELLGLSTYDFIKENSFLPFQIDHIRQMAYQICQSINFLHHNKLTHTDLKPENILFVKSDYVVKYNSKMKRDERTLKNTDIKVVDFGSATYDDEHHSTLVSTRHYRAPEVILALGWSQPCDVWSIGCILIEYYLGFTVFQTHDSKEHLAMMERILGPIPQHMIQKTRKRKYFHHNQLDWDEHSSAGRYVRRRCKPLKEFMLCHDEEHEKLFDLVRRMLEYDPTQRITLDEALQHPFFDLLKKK
T4 sequence (Q13043 whole entry): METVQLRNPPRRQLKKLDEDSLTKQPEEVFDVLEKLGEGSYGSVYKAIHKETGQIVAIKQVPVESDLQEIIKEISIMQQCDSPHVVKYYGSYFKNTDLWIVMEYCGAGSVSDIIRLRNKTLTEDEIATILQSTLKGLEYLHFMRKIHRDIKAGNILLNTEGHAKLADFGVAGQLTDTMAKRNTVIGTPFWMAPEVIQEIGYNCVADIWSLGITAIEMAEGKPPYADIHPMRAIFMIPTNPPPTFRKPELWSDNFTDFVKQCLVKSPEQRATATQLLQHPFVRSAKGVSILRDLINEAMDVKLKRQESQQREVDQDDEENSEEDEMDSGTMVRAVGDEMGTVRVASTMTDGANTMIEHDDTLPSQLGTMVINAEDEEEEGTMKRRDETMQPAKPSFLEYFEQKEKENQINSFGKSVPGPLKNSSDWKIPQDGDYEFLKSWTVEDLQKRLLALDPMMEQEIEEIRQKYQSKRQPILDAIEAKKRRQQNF
T2 sequence (O15075 whole entry): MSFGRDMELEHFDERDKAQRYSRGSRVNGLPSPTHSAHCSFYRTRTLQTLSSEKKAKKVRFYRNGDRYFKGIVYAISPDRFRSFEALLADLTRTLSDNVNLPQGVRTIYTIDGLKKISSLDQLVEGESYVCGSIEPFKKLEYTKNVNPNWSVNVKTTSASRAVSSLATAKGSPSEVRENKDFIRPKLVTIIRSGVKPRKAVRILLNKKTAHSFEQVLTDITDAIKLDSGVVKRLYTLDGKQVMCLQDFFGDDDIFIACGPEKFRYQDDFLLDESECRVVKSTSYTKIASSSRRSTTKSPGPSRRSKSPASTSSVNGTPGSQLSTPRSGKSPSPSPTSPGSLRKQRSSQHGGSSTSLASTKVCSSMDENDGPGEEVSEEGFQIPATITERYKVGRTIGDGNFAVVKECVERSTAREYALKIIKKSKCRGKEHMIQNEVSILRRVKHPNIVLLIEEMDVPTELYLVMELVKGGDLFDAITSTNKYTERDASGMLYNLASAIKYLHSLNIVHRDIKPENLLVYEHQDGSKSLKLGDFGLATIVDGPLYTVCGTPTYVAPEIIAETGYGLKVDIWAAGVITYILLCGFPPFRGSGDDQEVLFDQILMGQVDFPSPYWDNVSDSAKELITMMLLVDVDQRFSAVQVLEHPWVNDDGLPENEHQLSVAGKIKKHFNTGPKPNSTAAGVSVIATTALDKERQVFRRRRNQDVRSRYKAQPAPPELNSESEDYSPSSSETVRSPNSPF
PIK3CA(C420R), sequence (P42336 whole entry C420R): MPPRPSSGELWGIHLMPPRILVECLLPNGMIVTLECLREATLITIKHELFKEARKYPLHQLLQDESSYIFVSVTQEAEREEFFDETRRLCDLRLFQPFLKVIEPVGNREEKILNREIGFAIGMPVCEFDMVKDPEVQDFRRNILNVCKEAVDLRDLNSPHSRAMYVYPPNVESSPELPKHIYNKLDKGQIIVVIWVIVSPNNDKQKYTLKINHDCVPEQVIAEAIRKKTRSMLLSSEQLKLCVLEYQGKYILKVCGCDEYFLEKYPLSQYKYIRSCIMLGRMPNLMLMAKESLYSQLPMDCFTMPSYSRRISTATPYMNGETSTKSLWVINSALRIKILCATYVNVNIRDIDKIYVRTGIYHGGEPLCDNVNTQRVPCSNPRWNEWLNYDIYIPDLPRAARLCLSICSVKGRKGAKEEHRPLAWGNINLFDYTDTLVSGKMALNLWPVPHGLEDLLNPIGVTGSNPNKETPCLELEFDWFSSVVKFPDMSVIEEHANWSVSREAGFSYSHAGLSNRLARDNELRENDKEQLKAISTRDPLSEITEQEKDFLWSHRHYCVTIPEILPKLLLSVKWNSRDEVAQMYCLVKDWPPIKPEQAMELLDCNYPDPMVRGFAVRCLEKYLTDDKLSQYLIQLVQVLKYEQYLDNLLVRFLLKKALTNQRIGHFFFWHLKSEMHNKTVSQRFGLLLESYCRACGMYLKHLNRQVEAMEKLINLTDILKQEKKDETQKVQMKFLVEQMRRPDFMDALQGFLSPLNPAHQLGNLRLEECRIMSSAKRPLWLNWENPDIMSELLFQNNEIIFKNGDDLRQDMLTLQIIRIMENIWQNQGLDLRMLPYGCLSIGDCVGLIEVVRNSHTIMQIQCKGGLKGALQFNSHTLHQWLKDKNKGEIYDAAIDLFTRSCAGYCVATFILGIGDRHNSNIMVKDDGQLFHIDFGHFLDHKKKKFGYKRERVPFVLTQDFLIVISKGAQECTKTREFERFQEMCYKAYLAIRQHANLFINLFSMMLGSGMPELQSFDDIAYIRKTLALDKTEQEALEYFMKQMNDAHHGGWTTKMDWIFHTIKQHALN
PLK2, sequence (Q9NYY3 whole entry): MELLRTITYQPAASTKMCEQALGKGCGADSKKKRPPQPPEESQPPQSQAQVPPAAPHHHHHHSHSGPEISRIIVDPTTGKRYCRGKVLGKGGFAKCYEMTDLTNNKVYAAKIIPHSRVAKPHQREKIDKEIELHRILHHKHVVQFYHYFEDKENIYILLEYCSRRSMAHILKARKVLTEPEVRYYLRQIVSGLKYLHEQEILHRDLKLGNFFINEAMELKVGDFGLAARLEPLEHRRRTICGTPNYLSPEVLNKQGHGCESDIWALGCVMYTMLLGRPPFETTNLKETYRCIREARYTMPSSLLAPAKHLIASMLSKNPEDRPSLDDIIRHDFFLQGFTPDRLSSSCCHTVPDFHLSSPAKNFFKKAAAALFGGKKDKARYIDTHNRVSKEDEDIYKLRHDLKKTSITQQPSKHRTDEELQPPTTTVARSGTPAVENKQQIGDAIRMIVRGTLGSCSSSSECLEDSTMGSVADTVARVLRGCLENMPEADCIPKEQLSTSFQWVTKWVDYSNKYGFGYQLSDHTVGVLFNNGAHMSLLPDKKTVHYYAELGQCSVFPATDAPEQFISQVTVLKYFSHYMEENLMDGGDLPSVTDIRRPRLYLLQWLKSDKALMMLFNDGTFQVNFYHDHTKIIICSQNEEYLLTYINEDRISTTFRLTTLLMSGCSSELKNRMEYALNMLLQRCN
PIK3CA(E545K), sequence (P42336 whole entry E545K): as the sequence (P42336 whole entry C420R) above, with R420C, E545K counted along it

With `C[C@@H]1CC(=O)NN=C1c1ccc(NN=C(C#N)C#N)cc1` [levosimendan], the remaining binding at 100 µM on PLK2 worked out at 72%; at TSSK3, 100%; at TXK, 60%; at S6K1 (read-out: Percent Control (100 uM Levosimendan)), 43%; on CLK4 it was 89%; on CDKL3 it was 100%. Further, the remaining binding at 100 µM on DCAMKL1 worked out at 67%; on GRK1, 67%; on IGF1R, 86%; on MAP4K2, 100%; at MLK2 it was 81%; at MST1, 75%. The remaining binding at 100 µM on TGFBR2 came to 89%; on p38-alpha, 97%; on ADCK4 it was 100%; at PIK3CA(E545K) it was 58%; on LTK it was 96%; on PIK3CA(C420R), 100%. Moreover, on CDKL5, the remaining binding at 100 µM is 94%. At S6K1 (read-out: Percent Control (10 uM Levosimendan)), the remaining binding at 10 µM was 84%.
